{"source": "PubChem BioAssay (NCI)", "experiment_in_all_cases": "inhibition of tumour cell growth, NCI panel, 48 h", "key": {"UACC-257 melanoma": {"system": "UACC-257 melanoma"}, "CAKI-1 renal": {"system": "CAKI-1 renal"}, "SK-MEL-5 melanoma": {"system": "SK-MEL-5 melanoma"}, "TK-10 renal": {"system": "TK-10 renal"}, "MALME-3M melanoma": {"system": "MALME-3M melanoma"}, "EKVX NSCLC": {"system": "EKVX NSCLC"}, "SF-295 CNS": {"system": "SF-295 CNS"}, "PC-3 prostate": {"system": "PC-3 prostate"}, "KM12 colon": {"system": "KM12 colon"}, "SK-OV-3 ovarian": {"system": "SK-OV-3 ovarian"}, "MOLT-4 leukemia": {"system": "MOLT-4 leukemia"}, "SNB-75 CNS": {"system": "SNB-75 CNS"}, "NCI-H23 lung": {"system": "NCI-H23 lung"}, "NCI-H226 lung": {"system": "NCI-H226 lung"}, "CCRF-CEM leukemia": {"system": "CCRF-CEM leukemia"}, "HT29 colon": {"system": "HT29 colon"}, "SR leukemia": {"system": "SR leukemia"}, "HS 578T breast": {"system": "HS 578T breast"}, "SK-MEL-2 melanoma": {"system": "SK-MEL-2 melanoma"}, "786-0 renal": {"system": "786-0 renal"}, "SF-539 CNS": {"system": "SF-539 CNS"}, "NCI-H460 lung": {"system": "NCI-H460 lung"}, "T-47D breast": {"system": "T-47D breast"}, "SW-620 colon": {"system": "SW-620 colon"}, "HOP-92 NSCLC": {"system": "HOP-92 NSCLC"}, "HOP-62 NSCLC": {"system": "HOP-62 NSCLC"}, "OVCAR-5 ovarian": {"system": "OVCAR-5 ovarian"}}, "note": "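Values below derive from 48-hour exposures of cells grown in 96-well plates, with endpoints linearly interpolated between the two concentrations bracketing the appropriate inhibition level. Here, GI50 denotes the concentration required for 50% inhibition of growth. At the TGI there is no net growth.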"}
{"molecule": "Cc1ncc(C(=O)Nc2ccc(CN3CCN(C)CC3)c(C(F)(F)F)c2)cc1C#Cc1cnc(N)c2ncccc12", "values": [{"measurement": "GI50", "setting": "UACC-257 melanoma", "value": 0.128, "unit": "µM"}, {"measurement": "TGI", "setting": "UACC-257 melanoma", "value": 2.55, "unit": "µM"}, {"measurement": "GI50", "setting": "CAKI-1 renal", "value": 0.0719, "unit": "µM"}, {"measurement": "TGI", "setting": "CAKI-1 renal", "value": 1.46, "unit": "µM"}, {"measurement": "GI50", "setting": "SK-MEL-5 melanoma", "value": 1.02, "unit": "µM"}, {"measurement": "TGI", "setting": "SK-MEL-5 melanoma", "value": 4.44, "unit": "µM"}, {"measurement": "GI50", "setting": "TK-10 renal", "value": 0.318, "unit": "µM"}, {"measurement": "TGI", "setting": "TK-10 renal", "value": 2.13, "unit": "µM"}, {"measurement": "GI50", "setting": "MALME-3M melanoma", "value": "< 0.0177", "unit": "µM"}, {"measurement": "TGI", "setting": "MALME-3M melanoma", "value": 0.135, "unit": "µM"}, {"measurement": "GI50", "setting": "EKVX NSCLC", "value": 1.27, "unit": "µM"}, {"measurement": "TGI", "setting": "EKVX NSCLC", "value": 3.62, "unit": "µM"}, {"measurement": "GI50", "setting": "SF-295 CNS", "value": 1.26, "unit": "µM"}, {"measurement": "TGI", "setting": "SF-295 CNS", "value": 10.6, "unit": "µM"}, {"measurement": "GI50", "setting": "PC-3 prostate", "value": 1.22, "unit": "µM"}, {"measurement": "TGI", "setting": "PC-3 prostate", "value": 2.8, "unit": "µM"}, {"measurement": "TGI", "setting": "KM12 colon", "value": 1.33, "unit": "µM"}, {"measurement": "GI50", "setting": "SK-OV-3 ovarian", "value": 0.341, "unit": "µM"}, {"measurement": "TGI", "setting": "SK-OV-3 ovarian", "value": 7.2, "unit": "µM"}, {"measurement": "GI50", "setting": "MOLT-4 leukemia", "value": 0.0946, "unit": "µM"}, {"measurement": "GI50", "setting": "SNB-75 CNS", "value": 0.3, "unit": "µM"}, {"measurement": "TGI", "setting": "SNB-75 CNS", "value": 2.26, "unit": "µM"}, {"measurement": "GI50", "setting": "NCI-H23 lung", "value": 0.841, "unit": "µM"}, {"measurement": "TGI", "setting": "NCI-H23 lung", "value": 3.3, "unit": "µM"}, {"measurement": "GI50", "setting": "NCI-H226 lung", "value": 0.293, "unit": "µM"}, {"measurement": "TGI", "setting": "NCI-H226 lung", "value": 24.3, "unit": "µM"}, {"measurement": "GI50", "setting": "CCRF-CEM leukemia", "value": 0.558, "unit": "µM"}, {"measurement": "TGI", "setting": "CCRF-CEM leukemia", "value": "> 20.6", "unit": "µM"}, {"measurement": "GI50", "setting": "HT29 colon", "value": 0.0435, "unit": "µM"}, {"measurement": "TGI", "setting": "HT29 colon", "value": 2.08, "unit": "µM"}, {"measurement": "GI50", "setting": "SR leukemia", "value": 0.472, "unit": "µM"}, {"measurement": "GI50", "setting": "HS 578T breast", "value": 0.23, "unit": "µM"}, {"measurement": "TGI", "setting": "HS 578T breast", "value": 4.69, "unit": "µM"}, {"measurement": "GI50", "setting": "SK-MEL-2 melanoma", "value": 0.0783, "unit": "µM"}, {"measurement": "TGI", "setting": "SK-MEL-2 melanoma", "value": 0.747, "unit": "µM"}, {"measurement": "GI50", "setting": "786-0 renal", "value": 0.508, "unit": "µM"}, {"measurement": "TGI", "setting": "786-0 renal", "value": 2.88, "unit": "µM"}, {"measurement": "GI50", "setting": "SF-539 CNS", "value": 1.12, "unit": "µM"}, {"measurement": "TGI", "setting": "SF-539 CNS", "value": 2.59, "unit": "µM"}, {"measurement": "GI50", "setting": "NCI-H460 lung", "value": 0.0869, "unit": "µM"}, {"measurement": "TGI", "setting": "NCI-H460 lung", "value": 2.15, "unit": "µM"}, {"measurement": "GI50", "setting": "T-47D breast", "value": 5.36, "unit": "µM"}, {"measurement": "TGI", "setting": "T-47D breast", "value": 27.4, "unit": "µM"}, {"measurement": "GI50", "setting": "SW-620 colon", "value": 0.208, "unit": "µM"}, {"measurement": "TGI", "setting": "SW-620 colon", "value": 2.9, "unit": "µM"}, {"measurement": "GI50", "setting": "HOP-92 NSCLC", "value": 0.129, "unit": "µM"}, {"measurement": "TGI", "setting": "HOP-92 NSCLC", "value": 1.66, "unit": "µM"}, {"measurement": "GI50", "setting": "HOP-62 NSCLC", "value": 0.704, "unit": "µM"}, {"measurement": "TGI", "setting": "HOP-62 NSCLC", "value": 11.9, "unit": "µM"}, {"measurement": "GI50", "setting": "OVCAR-5 ovarian", "value": 0.807, "unit": "µM"}]}
